In publication PMC12377202, “Design, synthesis, and cytotoxic evaluation of quinazoline-based derivatives as VEGER-2 inhibitors: comparative study against EGFR kinase activity, induction of apoptosis, and molecular docking study” (RSC Advances, 2025):

Experiments:
Assay type in all cases: cell-based, human
TNF-alpha = TNF-alpha level in HepG-2 cells; details: control 43.48
Protocol: (§1) All synthesized compounds were tested at their cytotoxic concentrations in HepG-2 cells for analysis of gene expression levels of apoptotic markers caspase-3, caspase-9, TNF-α, and IL-6 proteins, and only two active compounds were tested for BAX and Bcl-2 proteins.
(§2) through Flow cytometric analysis.
(§3) Pellets were collected again and incubated with
(§4) Total RNA from vehicle-treated
(§5) (Thermo Scientific, USA).
(§6) All experiments were performed in […]

HepG-2 = test: MTT anti-proliferative assay, HepG-2; details: Homo sapiens, HepG2; for viability at 0.195 µg/mL / cytotoxicity at 0.195 µg/mL: HepG-2, 0.195 ug/ml; for cytotoxicity at 0.195 µg/mL / cytotoxicity at 0.391 µg/mL / cytotoxicity at 0.781 µg/mL / cytotoxicity at 1.563 µg/mL / cytotoxicity at 3.125 µg/mL / cytotoxicity at 6.25 µg/mL / cytotoxicity at 12.5 µg/mL / cytotoxicity at 25 µg/mL: read-out: Toxicity %; for viability at 0.391 µg/mL / cytotoxicity at 0.391 µg/mL: HepG-2, 0.391 ug/ml; for viability at 0.781 µg/mL / cytotoxicity at 0.781 µg/mL: HepG-2, 0.781 ug/ml; for viability at 1.563 µg/mL / cytotoxicity at 1.563 µg/mL: HepG-2, 1.563 ug/ml; for viability at 3.125 µg/mL / cytotoxicity at 3.125 µg/mL: HepG-2, 3.125 ug/ml; for viability at 6.25 µg/mL / cytotoxicity at 6.25 µg/mL: HepG-2, 6.25 ug/ml; for viability at 12.5 µg/mL / cytotoxicity at 12.5 µg/mL: HepG-2, 12.5 ug/ml; for viability at 25 µg/mL / cytotoxicity at 25 µg/mL: HepG-2, 25 ug/ml; for IC50: MTT, HepG-2, read-out: Cytotoxicity against cancer cells IC50 HepG-2
IL-6R = IL-6R level in HepG-2 cells; details: for IL-6R ± SE: HepG-2, at IC50 concentrations; for IL-6R ± SE / IL-6 ±SE: control 44.10; for IL-6R protein level: HepG-2, control 44.10%; for IL-6 ±SE: raw data, HepG2
Protocol: as §1, §2, §3, §4, §5, §6

caspase-9 = test: Caspase-9 expression level in HepG-2 cells; details: for Caspase-9 ± SE: HepG-2, at IC50 concentrations, control 11.01; for caspase-9 expression level, fold increase: HepG-2, vs control cells
Protocol: as §1, §2, §3, §4, §5, §6

K-562 = test: MTT anti-proliferative assay, K-562; details: Homo sapiens, K562; for viability at 0.195 µmol / cytotoxicity at 0.195 µmol: K-562, 0.195 umol; for cytotoxicity at 0.195 µmol / cytotoxicity at 0.391 µmol / cytotoxicity at 0.781 µmol / cytotoxicity at 1.563 µmol / cytotoxicity at 3.125 µmol / cytotoxicity at 6.25 µmol / cytotoxicity at 12.5 µmol / cytotoxicity at 25 µmol: read-out: Toxicity %; for viability at 0.391 µmol / cytotoxicity at 0.391 µmol: K-562, 0.391 umol; for viability at 0.781 µmol / cytotoxicity at 0.781 µmol: K-562, 0.781 umol; for viability at 1.563 µmol / cytotoxicity at 1.563 µmol: K-562, 1.563 umol; for viability at 3.125 µmol / cytotoxicity at 3.125 µmol: K-562, 3.125 umol; for viability at 6.25 µmol / cytotoxicity at 6.25 µmol: K-562, 6.25 umol; for viability at 12.5 µmol / cytotoxicity at 12.5 µmol: K-562, 12.5 umol; for viability at 25 µmol / cytotoxicity at 25 µmol: K-562, 25 umol; for IC50: MTT, K-562, read-out: Cytotoxicity against cancer cells IC50 K-562
caspase-3 = test: Caspase-3 expression level in HepG-2 cells; details: for Caspase-3 ± SE: HepG-2, at IC50 concentrations, control 0.460; for caspase-3 expression level, fold increase: HepG-2, vs control cells
Protocol: as §1, §2, §3, §4, §5, §6

MCF-7 = test: MTT anti-proliferative assay, MCF-7; details: Homo sapiens, MCF7; for viability at 0.195 µmol / cytotoxicity at 0.195 µmol: MCF-7, 0.195 umol; for cytotoxicity at 0.195 µmol / cytotoxicity at 0.391 µmol / cytotoxicity at 0.781 µmol / cytotoxicity at 1.563 µmol / cytotoxicity at 3.125 µmol / cytotoxicity at 6.25 µmol / cytotoxicity at 12.5 µmol / cytotoxicity at 25 µmol: read-out: Toxicity %; for viability at 0.391 µmol / cytotoxicity at 0.391 µmol: MCF-7, 0.391 umol; for viability at 0.781 µmol / cytotoxicity at 0.781 µmol: MCF-7, 0.781 umol; for viability at 1.563 µmol / cytotoxicity at 1.563 µmol: MCF-7, 1.563 umol; for viability at 3.125 µmol / cytotoxicity at 3.125 µmol: MCF-7, 3.125 umol; for viability at 6.25 µmol / cytotoxicity at 6.25 µmol: MCF-7, 6.25 umol; for viability at 12.5 µmol / cytotoxicity at 12.5 µmol: MCF-7, 12.5 umol; for viability at 25 µmol / cytotoxicity at 25 µmol: MCF-7, 25 umol; for IC50: MTT, MCF-7, read-out: Cytotoxicity against cancer cells IC50 MCF-7

SMILES: O=C(Cn1cnc2cc(Cl)ccc2c1=O)Nc1ccc(Cl)cc1 [8c, 2-(7-Chloro-4-oxoquinazolin-3(4H)-yl)-N-(4-chlorophenyl)acetamide]
- TNF-alpha ±SE (TNF-alpha; HepG-2, at IC50 concentrations): 9.13 ± 0.37 ng/L
- TNF-alpha ±SE (TNF-alpha; raw data, HepG2): 10.2 ng/L
- viability at 0.195 µg/mL (HepG-2): 89.2%
- cytotoxicity at 0.195 µg/mL (HepG-2): 10.8%
- viability at 0.391 µg/mL (HepG-2): 65.9%
- cytotoxicity at 0.391 µg/mL (HepG-2): 34.1%
- viability at 0.781 µg/mL (HepG-2): 47.8%
- cytotoxicity at 0.781 µg/mL (HepG-2): 52.2%
- viability at 1.563 µg/mL (HepG-2): 29.9%
- cytotoxicity at 1.563 µg/mL (HepG-2): 70.1%
- viability at 3.125 µg/mL (HepG-2): 15.9%
- cytotoxicity at 3.125 µg/mL (HepG-2): 84.1%
- viability at 6.25 µg/mL (HepG-2): 11%
- cytotoxicity at 6.25 µg/mL (HepG-2): 89%
- viability at 12.5 µg/mL (HepG-2): 7.66%
- cytotoxicity at 12.5 µg/mL (HepG-2): 92.3%
- viability at 25 µg/mL (HepG-2): 6.7%
- cytotoxicity at 25 µg/mL (HepG-2): 93.3%
- IC50 (HepG-2): 734.4 ± 2.3 nM
- IL-6R ± SE (IL-6R): 14.73 ± 1.06 ng/L
- IL-6R protein level (IL-6R): 14.73 ng/L
- IL-6 ±SE (IL-6R): 16.64 ng/L
- Caspase-9 ± SE (caspase-9): 26.98 ± 1.30 ng/L
- Caspase-9 ± SE (caspase-9; listed as R1): 26.98 ng/L
- caspase-9 expression level, fold increase (caspase-9): 2.5 fold
- viability at 0.195 µmol (K-562): 80.8%
- cytotoxicity at 0.195 µmol (K-562): 19.2%
- viability at 0.391 µmol (K-562): 60.1%
- cytotoxicity at 0.391 µmol (K-562): 39.9%
- viability at 0.781 µmol (K-562): 34.4%
- cytotoxicity at 0.781 µmol (K-562): 65.6%
- viability at 1.563 µmol (K-562): 19.5%
- cytotoxicity at 1.563 µmol (K-562): 80.5%
- viability at 3.125 µmol (K-562): 13%
- cytotoxicity at 3.125 µmol (K-562): 87%
- viability at 6.25 µmol (K-562): 9.89%
- cytotoxicity at 6.25 µmol (K-562): 90.1%
- viability at 12.5 µmol (K-562): 8.25%
- cytotoxicity at 12.5 µmol (K-562): 91.7%
- viability at 25 µmol (K-562): 6.53%
- cytotoxicity at 25 µmol (K-562): 93.5%
- IC50 (K-562): 544.4 ± 3.2 nM
- Caspase-3 ± SE (caspase-3): 1.25 ± 0.090 ng/mL
- Caspase-3 ± SE (caspase-3; listed as R1): 1.25 ng/mL
- caspase-3 expression level, fold increase (caspase-3): 2.72 fold
- viability at 0.195 µmol (MCF-7): 46.1%
- cytotoxicity at 0.195 µmol (MCF-7): 53.9%
- viability at 0.391 µmol (MCF-7): 32.9%
- cytotoxicity at 0.391 µmol (MCF-7): 67.1%
- viability at 0.781 µmol (MCF-7): 20.3%
- cytotoxicity at 0.781 µmol (MCF-7): 79.7%
- viability at 1.563 µmol (MCF-7): 13.1%
- cytotoxicity at 1.563 µmol (MCF-7): 86.9%
- viability at 3.125 µmol (MCF-7): 10.2%
- cytotoxicity at 3.125 µmol (MCF-7): 89.8%
- viability at 6.25 µmol (MCF-7): 8.44%
- cytotoxicity at 6.25 µmol (MCF-7): 91.6%
- viability at 12.5 µmol (MCF-7): 8.05%
- cytotoxicity at 12.5 µmol (MCF-7): 92%
- viability at 25 µmol (MCF-7): 6.64%
- cytotoxicity at 25 µmol (MCF-7): 93.4%
- IC50 (MCF-7): 188 ± 2.6 nM

SMILES: O=C(Cn1cnc2cc(Cl)ccc2c1=O)Nc1ccc(F)c(Cl)c1 [8e, N-(3-Chloro-4-fluorophenyl)-2-(7-chloro-4-oxoquinazolin-3(4H)-yl)acetamide]
- TNF-alpha ±SE (TNF-alpha; HepG-2, at IC50 concentrations): 32.07 ± 2.32 ng/L
- TNF-alpha ±SE (TNF-alpha; raw data, HepG2): 27.34 ng/L
- viability at 0.195 µg/mL (HepG-2): 93.8%
- cytotoxicity at 0.195 µg/mL (HepG-2): 6.15%
- viability at 0.391 µg/mL (HepG-2): 75.6%
- cytotoxicity at 0.391 µg/mL (HepG-2): 24.4%
- viability at 0.781 µg/mL (HepG-2): 62.3%
- cytotoxicity at 0.781 µg/mL (HepG-2): 37.7%
- viability at 1.563 µg/mL (HepG-2): 47.6%
- cytotoxicity at 1.563 µg/mL (HepG-2): 52.4%
- viability at 3.125 µg/mL (HepG-2): 23.1%
- cytotoxicity at 3.125 µg/mL (HepG-2): 76.9%
- viability at 6.25 µg/mL (HepG-2): 11.9%
- cytotoxicity at 6.25 µg/mL (HepG-2): 88.1%
- viability at 12.5 µg/mL (HepG-2): 9.45%
- cytotoxicity at 12.5 µg/mL (HepG-2): 90.5%
- viability at 25 µg/mL (HepG-2): 7.22%
- cytotoxicity at 25 µg/mL (HepG-2): 92.8%
- IC50 (HepG-2): 1436 ± 7.3 nM
- IL-6R ± SE (IL-6R): 11.93 ± 0.25 ng/L
- IL-6R protein level (IL-6R): 11.93 ng/L
- IL-6 ±SE (IL-6R): 28.78 ng/L
- Caspase-9 ± SE (caspase-9): 48.44 ± 1.24 ng/L
- Caspase-9 ± SE (caspase-9; listed as R5): 48.44 ng/L
- caspase-9 expression level, fold increase (caspase-9): 4.4 fold
- viability at 0.195 µmol (K-562): 52.8%
- cytotoxicity at 0.195 µmol (K-562): 47.2%
- viability at 0.391 µmol (K-562): 45.2%
- cytotoxicity at 0.391 µmol (K-562): 54.8%
- viability at 0.781 µmol (K-562): 31.6%
- cytotoxicity at 0.781 µmol (K-562): 68.4%
- viability at 1.563 µmol (K-562): 21.1%
- cytotoxicity at 1.563 µmol (K-562): 78.9%
- viability at 3.125 µmol (K-562): 10.3%
- cytotoxicity at 3.125 µmol (K-562): 89.7%
- viability at 6.25 µmol (K-562): 8.78%
- cytotoxicity at 6.25 µmol (K-562): 91.2%
- viability at 12.5 µmol (K-562): 7.43%
- cytotoxicity at 12.5 µmol (K-562): 92.6%
- viability at 25 µmol (K-562): 5.91%
- cytotoxicity at 25 µmol (K-562): 94.1%
- IC50 (K-562): 266.4 ± 1.7 nM
- Caspase-3 ± SE (caspase-3): 1.54 ± 0.11 ng/mL
- Caspase-3 ± SE (caspase-3; listed as R5): 1.54 ng/mL
- caspase-3 expression level, fold increase (caspase-3): 3.35 fold
- viability at 0.195 µmol (MCF-7): 81.5%
- cytotoxicity at 0.195 µmol (MCF-7): 18.5%
- viability at 0.391 µmol (MCF-7): 62.1%
- cytotoxicity at 0.391 µmol (MCF-7): 37.9%
- viability at 0.781 µmol (MCF-7): 32.7%
- cytotoxicity at 0.781 µmol (MCF-7): 67.3%
- viability at 1.563 µmol (MCF-7): 19%
- cytotoxicity at 1.563 µmol (MCF-7): 81%
- viability at 3.125 µmol (MCF-7): 12.8%
- cytotoxicity at 3.125 µmol (MCF-7): 87.2%
- viability at 6.25 µmol (MCF-7): 9.01%
- cytotoxicity at 6.25 µmol (MCF-7): 91%
- viability at 12.5 µmol (MCF-7): 7.65%
- cytotoxicity at 12.5 µmol (MCF-7): 92.3%
- viability at 25 µmol (MCF-7): 6.46%
- cytotoxicity at 25 µmol (MCF-7): 93.5%
- IC50 (MCF-7): 552.3 ± 1.7 nM
